Entries after “also recorded” stand apart in the source; their conditions may differ.
Columns and labels:
Type in all cases: physicochemical
[1] = Photobleaching under continuous-wave irradiation (532 nm, 0.53 fluence); details: for photostability (in words): dichloromethane, 532 nm irradiation
Description: Photostabilities of the Flav series were measured under continuous-wave irradiation (532 nm, 0.53 fluence).
(§1) Polymethine dyes disclosed herein are characterized with respect to their photophysics including absorption, emission, extinction coefficient, quantum yields, and fluorescence lifetime. All quantum yields values obtained are absolute quantum yields values measured using an integrating sphere. Photostabilities are evaluated by sample irradiation with high powered LEDs. Additionally, solvatochromism, solvent compatibility, and stability are assessed.

[2] = Emission spectra and absolute fluorescence quantum yield in dichloromethane (integrating sphere)
Description: (§2) The absorption, emission, and photostability properties of flavylium dyes 3-6 were measured.
Finally, the photoluminescence of Flav7 was compared to the prominent SWIR polymethine dyes, IR-26 and IR-1061. IR-26 has been widely-employed as a standard for this region, while IR-1061 has recently been the active component of nanomaterials for NIR-II in vivo imaging. Despite numerous studies which rely on these dyes, the reported ΦF for IR-26 have been inconsistent, and the ΦF of IR-1061 has yet to be thoroughly characterized. Consequently, to establish that Flav7 is more emissive than existing SWIR polymethine dyes, each dye's emission was directly compared using a SWIR camera. We prepared solutions of 3, IR-26, and IR-1061 in dichloromethane with identical absorbance at 808 nm, excited with a diffuse 808 nm laser, and imaged their emission over 1000-1500 nm.
(§3) The absorbance spectra in FIG. 2 and FIGS. 4A-4G were obtained in DCM on a JASCO V-770 UV-Visible/NIR spectrophotometer with a 2000 nm/min or 4000 nm/min scan rate. Plotted are the baseline corrected and normalized data. The emission spectra in FIG. 2 were taken in DCM on either a Horiba Instruments PTI QuantaMaster Series fluorometer (6), a Fluoromax-3 spectrofluorometer (1, 3-5), or home-built InGaAs array detector (Princeton Instruments). For 6 the following parameters were used: ex. 610 nm, emission collected from 620-900 nm, slits 5 nm, step size 1 nm, integration time 1 s. Plotted is the DCM corrected, baseline corrected, normalized data. For 1, and 3-5, the following parameters were used: slits 5 nm, step size 1 nm, integration time, 0.25 s. […]
as §1

[3] = Absorption spectra of flavylium dyes in dichloromethane (UV-Visible/NIR spectrophotometer)
Description: as §2, §3, §1

CN(C)c1ccc2c(c1)OC(c1ccccc1)=C\C2=C/C=C/C=C/c1cc(-c2ccccc2)[o+]c2cc(N(C)C)ccc12.[O-][Cl+3]([O-])([O-])[O-] [Dye 4, 7-(dimethylamino)-4-((1E,3E)-5-((E)-7-(dimethylamino)-2-phenyl-4H-chromen-4-ylidene)penta-1,3-dien-1-yl)-2-phenylchromenylium perchlorate]
photostability (in words) ([1]; listed as Flav5): excellent photostabilities; also recorded: desirable photostability

CN(C)c1ccc2c(c1)OC(c1ccccc1)=C/C2=C\C=C\c1cc(-c2ccccc2)[o+]c2cc(N(C)C)ccc12.[O-][Cl+3]([O-])([O-])[O-] [Dye 5, 7-(Dimethylamino)-4-((E)-3-((E)-7-(dimethylamino)-2-phenyl-4H-chromen-4-ylidene)prop-1-en-1-yl)-2-phenylchromenylium perchlorate]
photostability (in words) [1]: excellent photostabilities
photostability relative to HITCI ([1]; more photostable than HITCI): 4 fold

CN(C)c1ccc2c(c1)OC(c1ccccc1)=C/C2=C\c1cc(-c2ccccc2)[o+]c2cc(N(C)C)ccc12.O=C([O-])C(F)(F)F [Dye 6, (E)-7-(Dimethylamino)-4-((7-(dimethylamino)-2-phenyl-4H-chromen-4-ylidene)methyl)-2-phenylchromenylium 2,2,2-trifluoroacetate]
photostability (in words) [1]: excellent photostabilities

CN1C(=CC=CC=CC=CC2=[N+](C)c3ccccc3C2(C)C)C(C)(C)c2ccccc21.[I-] [HITCI, 1,1′,3,3,3′,3′-hexamethylindotricarbocyanine iodide]
ΦF relative to Flav3 ([2]; higher ΦF than Flav3): ~10 fold
absorption (DCM) λmax [3]: ~745 nm
absorption (DCM) ε ([3]; at λmax): ~220,000 M^−1cm^−1

ClC1=C(/C=C/c2cc(-c3ccccc3)[s+]c(-c3ccccc3)c2)CCC/C1=C/C=C1C=C(c2ccccc2)SC(c2ccccc2)=C1.F[B-](F)(F)F [IR-1061]
emission (DCM) λmax ([2]; dichloromethane): 1081 nm
ΦF ([2]; dichloromethane, absolute quantum yield): 0.32±0.04%
